This assay deals with panel of 144 protein kinases. As to the kind of experiment: SelectScreen protein kinase panel. It is filed as biochemical. The conditions noted are these: 144 protein kinases incl. PKC isoforms, OSR1, SPAK, WNK. The method, then:
Aliquots of HEK-293 cells expressing KCC2 were exposed to 30 μM SSA, heated from 37-55° C. The remaining level of soluble native KCC2 at each temperature was measured by immunoblotting and normalized to the level seen at 37° C. which was given a value of 1. […] This panel included protein kinase C isoforms, OSR1, SPAK (STK39) and with-no-lysine kinases (WNK), all of which phosphorylate KCC2 on multiple residues to indirectly modify its activity (Kahle et al., 2013, supra; Smalley et al., 2020, supra).

In the case of `C[C@@H]1CN(c2nc3c(c(Nc4ccc(C5CCCCC5)cc4)n2)COC3)CCO1` [Compound A, (R)—N-(4-cyclohexylphenyl)-2-(2-methylmorpholino)-5,7-dihydrofuro[3,4-d]pyrimidin-4-amine], the “effect on activity of kinase panel” value was “did not modify the activity”.

The values are drawn from patent US20260191874A1, “FUSED AMINO PYRIMIDINE COMPOUNDS FOR TREATMENT OF AUTISM SPECTRUM DISORDER, OBSESSIVE COMPULSIVE DISORDER AND TICS” (Ovid Therapeutics Inc., priority 2024, published 2026).
